Assays:
[1] = ingested dose, human body; cited from earlier work
[2] = Acid damage to Ribose loaded into 1% cross-linked resin with boiling water; format: physicochemical; details: 5.9 grams Ribose

Compound	Dose typically associated with side effects (diarrhea, gas, flatulence, nausea, stomach cramps) [1]	Fate of Ribose within the resin matrix ([2]; 2 grams 1% cross-linked sulfonated resin, 10 grams water preheated to boiling)	Fate of Ribose within the resin matrix ([2]; 2 grams sulfonated resin ion exchanged with Li or K salt, 10 grams water)
CN(CC(=O)O)C(=N)N [creatine, Creatine]	over 5 grams	–	–
O=C[C@H](O)[C@H](O)[C@H](O)CO [Ribose, D-Ribose]	–	destroyed	active and useful
